The values below come from patent US8759535B2, “Substituted fused imidazole derivatives, pharmaceutical compositions, and methods of use thereof” (High Point Pharmaceuticals, LLC, priority 2010, dated 2014).

The test deals with HMOX1. The test can be described thus: HMOX1 Protein Assay (immunostaining of HO-1 in NHLF cells, GE InCell 1000). The format is cell-based. The note with it: Homo sapiens, fold change above DMSO treated cells, 16 h; for fold induction at 5 µM: 5 μM compound; for fold induction at 3 µM: 3 μM compound (asterisk). In a few lines:
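Fold induction of HO-1 over vehicle, normally at 5 μM compound (asterisk marks 3 μM), in 0.8% DMSO medium. Normal human lung fibroblasts were treated 16 h, then paraformaldehyde-fixed, anti-HO-1/Alexa 488 stained with Hoechst, and read by high-content imaging.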

Counter-ions that a name gives are not always drawn.

For `CCN(CC)CCCCNC(=O)c1ccc2c(c1)nc(Nc1nc3ccc(OC(F)(F)F)cc3s1)n2C` [Example 360, 1-Methyl-2-(6-trifluoromethoxy-benzothiazol-2-ylamino)-1H-benzoimidazole-5-carboxylic acid (4-diethylamino-butyl)-amide], the fold induction at 5 µM stood at 34.3. `Cn1c(Nc2nc3ccc(OC(F)(F)F)cc3s2)nc2cc(C(=O)NC3(C(=O)O)CC3)ccc21` [Example 147, 1-{[1-Methyl-2-(6-trifluoromethoxy-benzothiazol-2-ylamino)-1H-benzimidazole-5-carbonyl]-amino}-cyclopropanecarboxylic acid] gave a fold induction at 5 µM of 1.8. As to `CCOCCNC(=O)c1ccc2c(c1)nc(Nc1nc3ccc(Cl)cc3s1)n2C` [Example 89, 2-(6-Chloro-benzothiazol-2-ylamino)-1-methyl-1H-benzoimidazole-5-carboxylic acid (2-ethoxy-ethyl)-amide], the fold induction at 5 µM was determined as 23.7.

`COCCNC(=O)c1cc2nc(Nc3nc4ccc(OC(F)(F)F)cc4s3)n(C)c2cc1OC` [Example 67, 6-Methoxy-1-methyl-2-(6-trifluoromethoxy-benzothiazol-2-ylamino)-1H-benzoimidazole-5-carboxylic acid (2-methoxy-ethyl)-amide]: the fold induction at 5 µM worked out at 18.7. The same measure, in the same setting: to `Cn1c(Nc2nc3ccc(Cl)cc3s2)nc2cc(C(=O)NCCCO)ccc21` [Example 214, 2-(6-Chloro-benzothiazol-2-ylamino)-1-methyl-1H-benzoimidazole-5-carboxylic acid (3-hydroxy-propyl)-amide] belongs 42.4; to `Cn1c(Nc2nc3ccc(OC(F)(F)F)cc3s2)nc2cc(C(=O)NCC(=O)N3CCC[C@H]3CO)ccc21` [Example 406, 1-Methyl-2-(6-trifluoromethoxy-benzothiazol-2-ylamino)-1H-benzoimidazole-5-carboxylic acid [2-((S)-2-hydroxymethyl-pyrrolidin-1-yl)-2-oxo-ethyl]-amide], 31. `Cn1c(Nc2nc3ccc(OC(F)(F)F)cc3s2)nc2cc(C(=O)NCC(=O)N3CCC(O)C3)ccc21` (centres unmarked) [Example 398, 1-Methyl-2-(6-trifluoromethoxy-benzothiazol-2-ylamino)-1H-benzoimidazole-5-carboxylic acid [2-(3-hydroxy-pyrrolidin-1-yl)-2-oxo-ethyl]-amide] gave a fold induction at 5 µM of 31.7. Regarding `Cn1c(Nc2nc3ccc(Cl)cc3s2)nc2ccc(C(=O)NCCOCCO)cc21` [Example 288, 2-(6-Chloro-benzothiazol-2-ylamino)-3-methyl-3H-benzoimidazole-5-carboxylic acid [2-(2-hydroxy-ethoxy)-ethyl]-amide], the fold induction at 5 µM amounted to 47. Turning to `CN(C(=O)CNC(=O)c1ccc2c(c1)nc(Nc1nc3ccc(Cl)cc3s1)n2C)C1CCOCC1` [Example 393, 2-(6-Chloro-benzothiazol-2-ylamino)-1-methyl-1H-benzoimidazole-5-carboxylic acid {[methyl-(tetrahydro-pyran-4-yl)-carbamoyl]-methyl}-amide], the fold induction at 5 µM turned out to be 61.3.

Compound `Cn1c(Nc2nc3ccc(OC(F)(F)F)cc3s2)nc2cc(C(=O)O)c(F)cc21` [Example 41, 6-Fluoro-1-methyl-2-(6-trifluoromethoxy-benzothiazol-2-ylamino)-1H-benzoimidazole-5-carboxylic acid] came in with a fold induction at 5 µM of 33.3.

As for `CN1CCN(C(=O)CCCNC(=O)c2ccc3c(c2)nc(Nc2nc4ccc(Cl)cc4s2)n3C)CC1` [Example 377, 2-(6-Chloro-benzothiazol-2-ylamino)-1-methyl-1H-benzoimidazole-5-carboxylic acid [4-(4-methyl-piperazin-1-yl)-4-oxo-butyl]-amide], the fold induction at 5 µM worked out at 20.3. `Cn1c(Nc2nc3ccc(Cl)cc3s2)nc2cc(C(=O)NCCOCCO)ccc21` [Example 235, 2-(6-Chloro-benzothiazol-2-ylamino)-1-methyl-1H-benzoimidazole-5-carboxylic acid [2-(2-hydroxy-ethoxy)-ethyl]-amide] registered a fold induction at 5 µM of 37.7. As to `Cn1c(Nc2nc3c(Cl)cccc3s2)nc2cc(C(=O)NCCOCCN)ccc21` [Example 270, 2-(4-Chloro-benzothiazol-2-ylamino)-1-methyl-1H benzoimidazole-5-carboxylic acid [2-(2-amino-ethoxy)-ethyl]-amide], the fold induction at 5 µM worked out at 14.6. Same read-out and setting: then `Cn1c(Nc2nc3ccc(Cl)cc3s2)nc2cc(C(=O)NC[C@H]3CC[C@H](CO)CC3)ccc21` [Example 255, 2-(6-Chloro-benzothiazol-2-ylamino)-1-methyl-1H-benzoimidazole-5-carboxylic acid (trans-4-hydroxymethyl-cyclohexylmethyl)-amide], with 49.3.

As to `Cn1c(Nc2nc3ccc(OC(F)(F)F)cc3s2)nc2cc(C(=O)NCC(=O)N3CCN(C(=O)OC(C)(C)C)CC3)ccc21` [Example 142, 4-(2-{[1-Methyl-2-(6-trifluoromethoxy-benzothiazol-2-ylamino)-1H-benzimidazole-5-carbonyl]-amino}-acetyl)-piperazine-1-carboxylic acid tert-butyl ester], the fold induction at 5 µM is 15.2.

Consider `COCCNC(=O)c1ccc2c(c1)nc(Nc1nc3ccc(F)cc3s1)n2C` [Example 125, 2-(6-Fluoro-benzothiazol-2-ylamino)-1-methyl-1H-benzimidazole-5-carboxylic acid (2-methoxy-ethyl)-amide], for which the fold induction at 5 µM came out at 25.9. Still for that read-out and setting: to `C[C@@H](O)CN1CCC(NC(=O)c2ccc3c(c2)nc(Nc2nc4ccc(OC(F)(F)F)cc4s2)n3C)C1` (stereo partly drawn) [Example 294, 1-Methyl-2-(6-trifluoromethoxy-benzothiazol-2-ylamino)-1H-benzoimidazole-5-carboxylic acid [1-((R)-2-hydroxy-propyl)-pyrrolidin-3-yl]-amide] belongs 29.4; to `CCNC(=O)c1ccc2c(c1)nc(Nc1nc3ccc(Cl)cc3s1)n2C` [Example 32, 2-(6-Chloro-benzothiazol-2-ylamino)-1-methyl-1H-benzoimidazole-5-carboxylic acid ethylamide], 12.6; to `CCN(CC)C(=O)CNC(=O)c1ccc2c(c1)nc(Nc1nc3ccc(OC(F)(F)F)cc3s1)n2C` [Example 140, 1-Methyl-2-(6-trifluoromethoxy-benzothiazol-2-ylamino)-1H-benzimidazole-5-carboxylic acid diethylcarbamoylmethyl-amide], 19.3. The compound `Cn1c(Nc2nc3ccc(Cl)cc3s2)nc2cc(C(=O)NCCCN3CCOCC3)ccc21` [Example 359, 2-(6-Chloro-benzothiazol-2-ylamino)-1-methyl-1H-benzoimidazole-5-carboxylic acid (3-morpholin-4-yl-propyl)-amide] showed a fold induction at 3 µM of 17.4.

Compound `Cn1c(Nc2nc3ccc(OC(F)(F)F)cc3s2)nc2cc(C(=O)NC3CCN(CC(C)(C)O)C3)ccc21` (centres unmarked) [Example 298, 1-Methyl-2-(6-trifluoromethoxy-benzothiazol-2-ylamino)-1H-benzoimidazole-5-carboxylic acid [1-(2-hydroxy-2-methyl-propyl)-pyrrolidin-3-yl]-amide] registered a fold induction at 5 µM of 21.1. `CCn1c(Nc2nc3ccc(Cl)cc3s2)nc2cc(C(=O)NCC(C)(C)OC)ccc21` [Example 178, 2-(6-Chloro-benzothiazol-2-ylamino)-1-ethyl-1H-benzoimidazole-5-carboxylic acid (2-methoxy-2-methyl-propyl)-amide] displayed a fold induction at 5 µM of 25.7. In the case of `Cn1c(Nc2nc3ccc(Cl)cc3s2)nc2cc(C(=O)NN3CCOCC3)ccc21` [Example 321, 2-(6-Chloro-benzothiazol-2-ylamino)-1-methyl-1H-benzoimidazole-5-carboxylic acid morpholin-4-ylamide], the fold induction at 3 µM stood at 15.3. In the case of `Cn1c(Nc2nc3ccc(Cl)cc3s2)nc2cc(C(=O)NCC(=O)NCCS(C)(=O)=O)ccc21` [Example 383, 2-(6-Chloro-benzothiazol-2-ylamino)-1-methyl-1H-benzoimidazole-5-carboxylic acid [(2-methanesulfonyl-ethylcarbamoyl)-methyl]-amide], the fold induction at 5 µM was 16.4.

Regarding `COCC1CCN(C(=O)CNC(=O)c2ccc3c(c2)nc(Nc2nc4ccc(OC(F)(F)F)cc4s2)n3C)CC1` [Example 447, 1-Methyl-2-(6-trifluoromethoxy-benzothiazol-2-ylamino)-1H-benzoimidazole-5-carboxylic acid [2-(4-methoxymethyl-piperidin-1-yl)-2-oxo-ethyl]-amide], the fold induction at 5 µM stood at 58.4.

`CCn1c(Nc2nc3ccc(OC(F)(F)F)cc3s2)nc2cc(C(=O)NCC(=O)N3CCN(C)CC3)ccc21` [Example 190, 1-Ethyl-2-(6-trifluoromethoxy-benzothiazol-2-ylamino)-1H-benzoimidazole-5-carboxylic acid [2-(4-methyl-piperazin-1-yl)-2-oxo-ethyl]-amide]: the fold induction at 5 µM was 23.4. Still for that read-out and setting: then `Cn1c(Nc2nc3ccc(Cl)cc3s2)nc2cc(C(=O)N3CCN(CCO)CC3)ccc21` [Example 306, [2-(6-Chloro-benzothiazol-2-ylamino)-1-methyl-1H-benzoimidazol-5-yl]-[4-(2-hydroxy-ethyl)-piperazin-1-yl]-methanone], with 38.7; and `CNC(=O)c1ccc2c(c1)nc(Nc1nc3ccc(OC(F)(F)F)cc3s1)n2CCN` [Example 173, 1-(2-Amino-ethyl)-2-(6-trifluoromethoxy-benzothiazol-2-ylamino)-1H-benzoimidazole-5-carboxylic acid methylamide hydrochloride], with 21.4. `Cn1c(Nc2nc3ccc(OC(F)(F)F)cc3s2)nc2cc(C(=O)NCCCN3CCOCC3)ccc21` [Example 358, 1-Methyl-2-(6-trifluoromethoxy-benzothiazol-2-ylamino)-1H-benzoimidazole-5-carboxylic acid (3-morpholin-4-yl-propyl)-amide]: the fold induction at 3 µM was 11.8.
